From patent US6656943B2, “1-phenyl-4-benzlpiperazines: dopamine receptor subtype specific ligands” (Neurogen Corporation, priority 1997, dated 2003)
Where a name gives a salt, the structure may show the parent alone.

What was measured:
D4 receptors = target: T1, D4 receptors (Homo sapiens, UniProt P21917); test: D4 receptor binding assay (3H-YM 09151-2 displacement)
T1 construct: expressed in transfected cells; host or cells: COS cells
T1 sequence (P21917 1-419): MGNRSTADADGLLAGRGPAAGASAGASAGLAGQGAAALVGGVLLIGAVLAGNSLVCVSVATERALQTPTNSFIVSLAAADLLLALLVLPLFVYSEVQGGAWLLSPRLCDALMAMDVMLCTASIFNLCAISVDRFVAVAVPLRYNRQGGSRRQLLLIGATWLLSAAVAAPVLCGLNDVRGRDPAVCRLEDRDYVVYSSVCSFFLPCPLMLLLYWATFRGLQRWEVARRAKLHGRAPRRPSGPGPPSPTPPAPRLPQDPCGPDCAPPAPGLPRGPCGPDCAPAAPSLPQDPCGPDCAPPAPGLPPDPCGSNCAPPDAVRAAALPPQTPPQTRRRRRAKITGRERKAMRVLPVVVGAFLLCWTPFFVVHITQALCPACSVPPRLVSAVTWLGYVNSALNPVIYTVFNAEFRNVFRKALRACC
Description: (§1) Pellets of COS cells containing recombinantly produced D2 or D4 receptors from human are used for the assays. The sample is homogenized in 100 volumes (w/vol) of 0.05 M Tris HCl buffer at 4° C. and pH 7.4. The sample is then centrifuged at 30,000×g and resuspended and rehomogenized. The sample is then centrifuged as described above and the final tissue sample is frozen until use. The tissue is resuspended 1:20 (wt/vol) in 0.05 M Tris HCl buffer containing 100 mM NaCl.
(§2) Incubations are carried out at […]. and contain 0.4 ml of tissue sample, 0.5 nM 3H-YM 09151-2 and the compound of interest in a total incubation mixture of 1.0 ml. Nonspecific binding is defined as that binding found in the presence of 1 mM spiperone; without further additions, nonspecific binding is less than 20% of total binding. Representative binding characteristics for compounds of the invention for the D2 and D4 receptor subtypes are shown in Table 2 for cloned human dopamine receptors. Typically, the compounds of the invention have similar binding profiles.

D2 receptors = target: T2, D2 receptors (Homo sapiens, UniProt P14416); test: D2 receptor binding assay (3H-YM 09151-2 displacement)
T2 construct: expressed in transfected cells; host or cells: COS cells
Description: as §1, §2

T2 sequence (P14416 whole entry): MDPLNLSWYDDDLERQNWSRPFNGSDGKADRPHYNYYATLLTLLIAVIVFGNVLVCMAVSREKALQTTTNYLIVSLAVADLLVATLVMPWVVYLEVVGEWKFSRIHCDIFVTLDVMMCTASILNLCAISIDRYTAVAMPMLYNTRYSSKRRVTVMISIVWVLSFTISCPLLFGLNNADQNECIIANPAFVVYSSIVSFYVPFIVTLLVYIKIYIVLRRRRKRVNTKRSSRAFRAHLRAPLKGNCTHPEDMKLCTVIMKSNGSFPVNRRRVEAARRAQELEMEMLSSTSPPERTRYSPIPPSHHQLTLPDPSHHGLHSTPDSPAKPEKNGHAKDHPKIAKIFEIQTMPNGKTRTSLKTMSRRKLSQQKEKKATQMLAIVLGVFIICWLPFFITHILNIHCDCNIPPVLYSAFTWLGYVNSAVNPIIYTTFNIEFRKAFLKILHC

SMILES	melting point [°C]	Ki (D4 receptors) [nM]	Ki (D2 receptors) [nM]
Clc1ccc(CN2CCN(c3ccccc3Cl)CC2)cc1.O=C(O)C(=O)O.O=C(O)C(=O)O	203 to 204		
Clc1ccc(CN2CCN(c3ccc(Cl)cc3)CC2)cc1 [Compound 1, 1-(4-Chlorophenyl)-4-(4-chlorobenlzyl)piperazine Dihydrochloride]		5	> 1000
Cc1ccc(CN2CCN(c3ccc(Cl)cc3)CC2)cc1 [Compound 4, 1-(4-chlorophenyl)-4-(4-methylbenzyl)piperazine dihydrobromide]		15	> 300
Cc1cccc(N2CCN(Cc3ccc(Cl)cc3)CC2)c1.O=C(O)C(=O)O.O=C(O)C(=O)O	233 to 235		
Clc1ccc(CN2CCN(c3ccc(Cl)c(Cl)c3)CC2)cc1	82 to 83		
Cc1ccc(N2CCN(Cc3ccc(Cl)cc3)CC2)cc1C [Compound 2, 1-(3,4-dimethylphenyl)-4-(4-chlorobenzyl)piperazine dihydrochloride]		16	> 600
Br.Br.Clc1ccc(CN2CCN(c3cccc(Cl)c3)CC2)cc1	238 to 240		
CCOc1ccc(N2CCN(Cc3ccc(Cl)cc3)CC2)cc1.Cl.Cl	235 to 237		
Cc1ccc(N2CCN(Cc3ccc(Cl)cc3)CC2)cc1.O=C(O)C(=O)O.O=C(O)C(=O)O	204 to 206		
COc1ccc(N2CCN(Cc3ccc(Cl)cc3)CC2)cc1 [Compound 3, 1-(4-methoxyphenyl)-4-(4-chlorobenzyl)piperazine dioxalate]		5	> 1000
Cc1ccccc1N1CCN(Cc2ccc(Cl)cc2)CC1.O=C(O)C(=O)O.O=C(O)C(=O)O	205 to 206		
Cc1ccc(N2CCN(Cc3ccc(Cl)cc3)CC2)cc1C (as salt: hydrochloride) [Compound 2, 1-(3,4-dimethylphenyl)-4-(4-chlorobenzyl)piperazine dihydrochloride]	225 to 228		
Br.Br.CCOc1ccccc1N1CCN(Cc2ccc(Cl)cc2)CC1	215 to 217		
Clc1ccc(CN2CCN(c3ccccc3)CC2)cc1.O=C(O)C(=O)O.O=C(O)C(=O)O	228 to 231		
Cc1ccc(CN2CCN(c3cccc(Cl)c3)CC2)cc1.O=C(O)C(=O)O.O=C(O)C(=O)O	199 to 200		
COc1ccccc1N1CCN(Cc2ccc(Cl)cc2)CC1.O=C(O)C(=O)O.O=C(O)C(=O)O	217 to 220		
COc1ccc(N2CCN(Cc3ccc(Cl)cc3)CC2)cc1 (as salt: oxalate) [Compound 3, 1-(4-methoxyphenyl)-4-(4-chlorobenzyl)piperazine dioxalate]	211 to 212		
